# US4902690A, “Pest controlling compositions” (The General Hospital Corporation, priority 1988, dated 1990)
# Values joined by “and” are separate entries in the source; they are usually repeats but may differ in a detail not shown here. Equal entries are not always repeated. Where two headings read alike, the source gives them in different places.
# What was measured:
# [1] = test system: octopamine-sensitive adenylate cyclase (firefly lantern octopamine receptor); test: Octopamine-sensitive adenylate cyclase activation, firefly light organ broken cell preparation; assay type: biochemical, firefly (Photinus pyralis)
# [2] = test system: tobacco hornworms (Manducca sexta); test: In vivo leaf test (feeding on sprayed tomato leaves); conditions: for effect of adding IBMX on antifeeding / pesticidal activity of the compound: IBMX 0.1%, FIGS. 9, 10, 17, Tables 4, 7, 8, FIG. 9 at 72 hours
# Manducca eggs = test: Ovacidal test (eggs dipped in drug solutions); assay type: in vivo, Manducca sexta
# Experimental: In some cases, test agents were tested for ovacidal activity by dipping groups of 10-50 Manducca eggs in drug solutions for 60 seconds and then determining the percentage of eggs which produced viable larvae. A compound or synergist with active ovacidal activity was one which decreased the percentage of eggs hatched, relative to control.
# [3] = Table 1, phenylethylamines, >1 = better than (±)-p-octopamine
# [4] = Table 1, phenylethylamines, maximal activation as % of that by (±)-p-octopamine, N.A. = No Activity
# [5] = agonist 1 gm/100 ml + PDE Inhibitor IBMX 0.1 g/100 ml
# [6] = agonist 1 gm/100 ml, No PDE Inhibitor
# [7] = agonist 10^-1 gm/100 ml + PDE Inhibitor IBMX 0.1 g/100 ml
# [8] = agonist 10^-1 gm/100 ml, No PDE Inhibitor
# [9] = agonist 10^-2 gm/100 ml + PDE Inhibitor IBMX 0.1 g/100 ml
# [10] = agonist 10^-2 gm/100 ml, No PDE Inhibitor
# [11] = agonist 10^-3 gm/100 ml + PDE Inhibitor IBMX 0.1 g/100 ml
# [12] = agonist 10^-3 gm/100 ml, No PDE Inhibitor
# [13] = Table 2, clonidines, N.A. = no activity
# [14] = Table 2, inhibitory properties at the octopamine receptor
# [15] = agonist 0.3 (3 × 10^-1) gm/100 ml + PDE Inhibitor IBMX 0.1 g/100 ml
# [16] = agonist 0.3 (3 × 10^-1) gm/100 ml, No PDE Inhibitor
smiles,measurement,setting,value
"CN(C)CC(O)c1ccc(O)cc1 (racemic) [(±)-N,Ndimethyloctopamine]",Ka^oct /Ka^B ratio,[1]; [3],0.9
same,Vmax (% OCT),[1]; [4],43 ± 4 % OCT
CNCC(O)c1ccc(O)cc1 (racemic) [(±)-Nmethyloctopamine],% Leaf Remaining,[2]; [5],90%
same,% Leaf Remaining,[2]; [6],30%
same,% Leaf Remaining,[2]; [7],55%
same,% Leaf Remaining,[2]; [8],< 5%
same,% Leaf Remaining,[2]; [9],42%
same,% Leaf Remaining,[2]; [10],< 5%
same,Ka^oct /Ka^B ratio,[1]; [3],1.8
same,Vmax (% OCT),[1]; [4],108 ± 10 % OCT
NCC(O)c1cccc(O)c1 (racemic) [(±)-m-octopamine],effect of adding IBMX on antifeeding / pesticidal activity of the compound,[2],failed to increase pesticidal activity
same,Ka^oct /Ka^B ratio,[1]; [3],0.1
same,Vmax (% OCT),[1]; [4],9 ± 1 % OCT
COc1cc(C(O)CN)ccc1O (racemic) [(±)-normetanephrine],Ka^oct /Ka^B ratio,[1]; [3],0.07
same,Vmax (% OCT),[1]; [4],68 ± 2 % OCT
NCC(O)c1ccccc1O (racemic) [(±)-o-octopamine],Ka^oct /Ka^B ratio,[1]; [3],0.05
same,Vmax (% OCT),[1]; [4],23 ± 1 % OCT
CC(N)Cc1ccc(O)cc1 (racemic) [(±)-p-hydroxyamphetamine],Ka^oct /Ka^B ratio,[1]; [3],< 0.05
same,Vmax (% OCT),[1]; [4],8 ± 3 % OCT
CC(N)C(O)c1ccc(O)cc1 (racemic) [(±)-α-methyloctopamine],Ka^oct /Ka^B ratio,[1]; [3],0.05
same,Vmax (% OCT),[1]; [4],44 ± 2 % OCT
CNC(C)C(O)c1ccc(O)cc1 (racemic) [(±)-α-methylsynephrine],Ka^oct /Ka^B ratio,[1]; [3],< 0.01
same,Vmax (% OCT),[1]; [4],7 ± 2 % OCT
C[C@H](N)[C@H](O)c1ccccc1 (relative stereo) [(±)-norephedrine],Ka^oct /Ka^B ratio,[1]; [3],< 0.09
same,Vmax (% OCT),[1]; [4],8 ± 1 % OCT
"NCC(O)c1ccc(Cl)cc1Cl (stereo not shown) [2,4-dichlorophenylethanolamine]",% Leaf Remaining,[2]; [5],80%
same,% Leaf Remaining,[2]; [6],10%
same,% Leaf Remaining,[2]; [7],50%
same,% Leaf Remaining,[2]; [8],< 5%
same,% Leaf Remaining,[2]; [9],30%
same,% Leaf Remaining,[2]; [10],< 5%
CNC[C@H](O)c1ccc(O)c(O)c1 [(-)-epinephrine],Ka^oct /Ka^B ratio,[1],0.20
same,Vmax (% OCT),[1]; light organ homogenate,75 ± 2 % OCT
CC(C)NC[C@H](O)c1ccc(O)c(O)c1 [(-)-isoproterenol],Vmax (% OCT),[1]; [4],19 ± 1 % OCT
NC[C@H](O)c1ccc(O)c(O)c1 [(-)-nonrepinephrine],Ka^oct /Ka^B ratio,[1]; [3],0.13
same,Vmax (% OCT),[1]; [4],72 ± 1 % OCT
NC[C@H](O)c1ccc(O)cc1 [(-)-p-octopamine],Vmax (% OCT),[1]; [4],101 ± 2 % OCT
CNC[C@H](O)c1cccc(O)c1 [(-)-phenylephrine],Ka^oct /Ka^B ratio,[1]; [3],< 0.2
same,Vmax (% OCT),[1]; [4],17 ± 1 % OCT
"Cc1cc(Cl)ccc1N=CN(C)C [CDM, chlordimeform]",% Leaf Remaining,[2]; [5],90%
same,% Leaf Remaining,[2]; [6],90%
same,% Leaf Remaining,[2]; [7],90%
same,% Leaf Remaining,[2]; [8],70%
same,% Leaf Remaining,[2]; [9],85%
same,% Leaf Remaining,[2]; [10],< 5%
same,% Leaf Remaining,[2]; [11],65%
same,% Leaf Remaining,[2]; [12],< 5%
same,% Leaf Remaining,[2]; agonist 10^-4 gm/100 ml + PDE Inhibitor IBMX 0.1 g/100 ml,50%
same,% Leaf Remaining,"[2]; agonist 10^-4 gm/100 ml, No PDE Inhibitor",< 5%
same,% Living Larvae,Manducca eggs; agonist 1 gm/100 ml + IBMX 0.1 g/100 ml,2%
same,% Living Larvae,Manducca eggs; [6],2%
same,% Living Larvae,Manducca eggs; agonist 10^-1 gm/100 ml + IBMX 0.1 g/100 ml,10%
same,% Living Larvae,Manducca eggs; [8],25%
same,% Living Larvae,Manducca eggs; agonist 10^-2 gm/100 ml + IBMX 0.1 g/100 ml,10%
same,% Living Larvae,Manducca eggs; [10],60%
same,Ka ratio,"[1]; FIG. 1, formamidines",0.5
same,Vmax,"[1]; FIG. 1, formamidines, % of octopamine",about 10%
Clc1ccc(Cl)c(N=C2NCCN2)c1 [NC 2],Ka^oct /Ka^B ratio,[1]; [13],1.1
same,Ki,[1]; [14],23 µM
Clc1cc(Cl)c(N=C2NCCN2)cc1Cl [NC 3],Ka^oct /Ka^B ratio,[1]; [13],2.8
Cc1cccc(C)c1N=C1NCCN1 [NC 4],Ka^oct /Ka^B ratio,[1]; [13],0.41
CCc1cccc(CC)c1N=C1NCCN1 [NC 5],effect of adding IBMX on antifeeding / pesticidal activity of the compound,[2],substantial increases in the potency
same,% Leaf Remaining,[2]; [15],70%
same,% Leaf Remaining,[2]; [16],40%
same,% Leaf Remaining,[2]; [7],45%
same,% Leaf Remaining,[2]; [8],30%
same,% Leaf Remaining,[2]; [9],30%
same,% Leaf Remaining,[2]; [10],15%
same,% Leaf Remaining,[2]; [11],17%
same,% Leaf Remaining,[2]; [12],10%
same,Ka^oct /Ka^B ratio,[1]; [13],19.0 and ~20
Brc1cccc(Br)c1N=C1NCCN1 [NC 6],Ka^oct /Ka^B ratio,[1]; [13],2.1
Clc1ccc(N=C2NCCN2)c(Cl)c1 [NC 8],Ka^oct /Ka^B ratio,[1]; [13],3.7
Cc1ccc(N=C2NCCN2)c(C)c1 [NC 9],Ka^oct /Ka^B ratio,[1]; [13],5.1
c1ccc(N=C2NCCN2)cc1 [NC 10],antifeeding activity of the compound by itself,"[2]; FIGS. 10, 13, 17, Table 8",inactive in vivo
same,effect of adding IBMX on antifeeding / pesticidal activity of the compound,[2],not synergized by the PDE inhibitor
same,% Leaf Remaining,[2]; [5],15%
same,% Leaf Remaining,[2]; [6],5%
same,% Leaf Remaining,[2]; [7],13%
same,% Leaf Remaining,[2]; [8],5%
same,% Leaf Remaining,[2]; [9],15%
same,% Leaf Remaining,[2]; [10],5%
same,% Leaf Remaining,[2]; [11],12%
same,% Leaf Remaining,[2]; [12],5%
same,Ki,[1]; [14],190 µM
Clc1cc(Cl)c(N=C2NCCN2)c(Cl)c1 [NC 11],Ka^oct /Ka^B ratio,[1]; [13],1.9
Brc1ccc(N=C2NCCN2)cc1 [NC 12],Ka^oct /Ka^B ratio,[1]; [13],3.0
Cc1cc(C)c(N=C2NCCN2)c(C)c1 [NC 13],Ka^oct /Ka^B ratio,[1]; [13],4.3
Nc1cc(Cl)c(N=C2NCCN2)c(Cl)c1 [NC 14],Ka^oct /Ka^B ratio,[1]; [13],0.7
same,Ki,[1]; [14],440 µM
CN(C)c1cc(Cl)c(N=C2NCCN2)c(Cl)c1 [NC 15],Ka^oct /Ka^B ratio,[1]; [13],1.9
CN(CCCl)c1cc(Cl)c(N=C2NCCN2)c(Cl)c1 [NC 16],Ki,[1],10 µM
same,Ka^oct /Ka^B ratio,[1]; [13],4.8
CNCCc1ccc(O)c(O)c1 [Nmethyldopamine],Ka^oct /Ka^B ratio,[1]; [3],0.19
same,Vmax (% OCT),[1]; [4],11 ± 1 % OCT
Clc1cccc(Cl)c1N=C1NCCN1 [clonidine],effect of adding IBMX on antifeeding / pesticidal activity of the compound,[2],substantial increases in the potency
same,% Leaf Remaining,[2]; [5],63%
same,% Leaf Remaining,[2]; [6],65%
same,% Leaf Remaining,[2]; [7],55%
same,% Leaf Remaining,[2]; [8],20%
same,% Leaf Remaining,[2]; [9],55%
same,% Leaf Remaining,[2]; [10],5%
same,Ka^oct /Ka^B ratio,[1],0.95
same,Ki,[1],20 µM
NCCc1ccc(O)c(O)c1 [dopamine],Ka^oct /Ka^B ratio,[1]; [3],0.26
same,Vmax (% OCT),[1]; [4],4 ± 1 % OCT
NCC(O)c1ccc(O)c(Cl)c1 (stereo not shown) [m-chloro-octopamine],Ka^oct /Ka^B ratio,[1]; [3],0.28
same,Vmax (% OCT),[1]; [4],77 ± 1 % OCT
"Nc1ncnc2c1nc(Sc1ccc(Cl)cc1)n2[C@@H]1O[C@@H]2COP(=O)(O)O[C@H]2[C@H]1O [p-Cl-phenylthio cyclic AMP, 8-p-chlorophenylthio-cyclic AMP]",antifeeding activity in the absence of IBMX,"[2]; concentration of 1%, FIGS. 18, 19",some antifeeding activity
NCC(O)c1ccc(F)cc1 (stereo not shown) [p-fluoro-phenylethanolamine],% Leaf Remaining,[2]; [15],95%
same,% Leaf Remaining,[2]; [16],25%
same,% Leaf Remaining,[2]; [7],98%
same,% Leaf Remaining,[2]; [9],80%
same,% Leaf Remaining,[2]; [11],50%
same,% Leaf Remaining,[2]; [12],< 5%
COc1ccc(CCN)cc1 [p-methoxphenylethylamine],Ka^oct /Ka^B ratio,[1]; [3],0.10
same,Vmax (% OCT),[1]; [4],6 ± 3 % OCT
NCCc1ccc(O)cc1 [tyramine],Ka^oct /Ka^B ratio,[1]; [3],0.15
same,Vmax (% OCT),[1]; [4],57 ± 1 % OCT
NCCc1ccccc1 [β-phenylethylamine],Ka^oct /Ka^B ratio,[1]; [3],0.03
same,Vmax (% OCT),[1]; [4],13 ± 2 % OCT
